Laboratory results from patent US10392390B2, “5-HT2C receptor agonists and compositions and methods of use” (Arena Pharmaceuticals, Inc., priority 2015, dated 2019).

Assays:
5-HT2C receptor [1] = target: T1, 5-HT2C receptor (Homo sapiens, UniProt P28335); test: IP accumulation assay in HEK293 cells expressing recombinant 5-HT2 receptors; assay type: cell-based; settings: 2 h at 37° C.
T1 construct: expressed in transfected cells; host or cells: HEK293
T1 sequence (P28335 33-458): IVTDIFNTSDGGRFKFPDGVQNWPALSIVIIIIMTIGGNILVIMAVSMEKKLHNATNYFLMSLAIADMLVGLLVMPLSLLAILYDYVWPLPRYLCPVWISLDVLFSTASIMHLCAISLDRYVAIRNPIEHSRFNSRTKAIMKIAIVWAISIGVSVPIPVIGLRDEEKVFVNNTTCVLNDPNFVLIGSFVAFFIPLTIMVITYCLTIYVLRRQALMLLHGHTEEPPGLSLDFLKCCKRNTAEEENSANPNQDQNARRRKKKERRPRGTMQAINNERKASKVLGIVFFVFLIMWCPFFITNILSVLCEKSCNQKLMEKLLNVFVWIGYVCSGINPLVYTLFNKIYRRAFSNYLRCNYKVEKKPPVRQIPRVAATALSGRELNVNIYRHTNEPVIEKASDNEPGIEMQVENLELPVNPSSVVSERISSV
Procedure: (§1) HEK293 cells expressing recombinant 5-HT2 receptors were added to sterile poly-D-lysine-coated 96-well microtiter plates (35,000 cells/well) and labeled with 0.6 μCi/well of [^3H]inositol in myoinositol-free DMEM for 18 h. Unincorporated [^3H]inositol was removed by aspiration and replaced with fresh myoinositol-free DMEM supplemented with LiCl (10 mM final) and pargyline (10 μM final). Serially diluted test compounds were then added and incubation was conducted for 2 h at 37° C. Incubations were then terminated by lysing cells with the addition of ice-cold 0.1 M formic acid followed by freezing at −80° C. After thawing, total [^3H]inositol phosphates were resolved from [^3H]inositol using AG1-X8 ion exchange resin (Bio-Rad) and [^3H]inositol phosphates were measured by scintillation counting using a Perkin Elmer TopCount® scintillation counter. All EC50 determinations were performed using 10 different concentrations and triplicate determinations were made at each test concentration.

5-HT2B receptor = target: T2, 5-HT2B receptor (Homo sapiens, UniProt P41595); test: Radioligand binding assay, [125I]DOI competition; settings: HEK293 cell membranes, read-out: DOI Binding Ki 2B
T2 construct: expressed in transfected cells; host or cells: HEK293
T2 sequence (P41595 whole entry): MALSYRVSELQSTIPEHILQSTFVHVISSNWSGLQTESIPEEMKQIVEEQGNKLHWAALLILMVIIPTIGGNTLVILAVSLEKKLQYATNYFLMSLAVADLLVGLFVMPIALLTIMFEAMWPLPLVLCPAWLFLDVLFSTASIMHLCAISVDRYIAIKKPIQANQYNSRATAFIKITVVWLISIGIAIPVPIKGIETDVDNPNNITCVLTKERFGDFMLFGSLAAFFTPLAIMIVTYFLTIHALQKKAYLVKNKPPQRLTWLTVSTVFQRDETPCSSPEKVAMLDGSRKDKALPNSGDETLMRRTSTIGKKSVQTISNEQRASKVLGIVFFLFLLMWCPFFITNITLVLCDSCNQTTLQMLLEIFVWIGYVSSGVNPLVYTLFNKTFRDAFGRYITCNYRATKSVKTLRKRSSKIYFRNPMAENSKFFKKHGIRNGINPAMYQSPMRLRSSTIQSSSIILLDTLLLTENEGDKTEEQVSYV
Procedure: (§2) HEK293 cells stably expressing recombinant 5-HT2 receptors were harvested, suspended in ice-cold phosphate buffered saline, pH 7.4 (PBS), and then centrifuged at 48,000 g for 20 min at 4° C. The resulting cell pellet was then re-suspended in wash buffer containing 20 mM HEPES, pH 7.4 and 0.1 mM EDTA, homogenized on ice using a Brinkman Polytron, and centrifuged (48,000 g for 20 min at 4° C.). The pellet was then resuspended in 20 mM HEPES, pH 7.4, homogenized on ice, and centrifuged (48,000 g for 20 min at 4° C.). Crude membrane pellets were stored at −80° C. until used for radioligand binding assays.
(§3) Experiments comprised addition of 95 μL, of assay buffer (20 mM HEPES, pH 7.4, 10 mM MgCl2), 50 μL, of membranes, 50 μL, of radioligand stock, and 5 μL of test compound diluted in assay buffer to 96-well microtiter plates, which were then incubated for 1 h at room temperature. Assay incubations were terminated by rapid filtration through PerkinElmer F/C filtration plates under reduced pressure using a 96-well Packard filtration apparatus, followed by washing three times with ice cold assay buffer. Plates were then dried at 45° C. for a minimum of 2 h. Finally, 25 μL of BetaScint™ scintillation cocktail was added to each well and the plates were counted in a Packard TopCount® scintillation counter. […]

5-HT2A receptor [2] = target: T3, 5-HT2A receptor (Homo sapiens, UniProt P28223); test: Radioligand binding assay, [125I]DOI competition; settings: HEK293 cell membranes, read-out: DOI Binding Ki 2A
T3 construct: expressed in transfected cells; host or cells: HEK293
T3 sequence (P28223 whole entry): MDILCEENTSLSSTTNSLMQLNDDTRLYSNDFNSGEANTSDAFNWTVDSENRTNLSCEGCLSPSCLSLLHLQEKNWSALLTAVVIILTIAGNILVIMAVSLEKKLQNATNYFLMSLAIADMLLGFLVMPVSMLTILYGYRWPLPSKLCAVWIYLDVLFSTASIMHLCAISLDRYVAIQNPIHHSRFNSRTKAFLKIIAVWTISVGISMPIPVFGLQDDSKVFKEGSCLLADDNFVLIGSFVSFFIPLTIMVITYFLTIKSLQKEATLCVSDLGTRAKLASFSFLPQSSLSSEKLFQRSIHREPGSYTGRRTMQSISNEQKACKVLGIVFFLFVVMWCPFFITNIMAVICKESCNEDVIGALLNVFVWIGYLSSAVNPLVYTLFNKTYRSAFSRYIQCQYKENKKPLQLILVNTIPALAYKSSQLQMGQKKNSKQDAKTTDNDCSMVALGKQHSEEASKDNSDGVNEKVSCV
Procedure: as §2, §3

5-HT2C receptor [3] = target: T1, 5-HT2C receptor; test: Radioligand binding assay, [125I]DOI competition; settings: HEK293 cell membranes, read-out: DOI Binding Ki 2C
Procedure: as §2
Radioligand binding assays were performed using the commercially available 5-HT2 receptor agonist [^125I]DOI as the radioligand and nonspecific binding was determined in the presence of unlabeled DOI at a saturating concentration of 10 μM. Competition experiments utilized 5-HT2 receptor expressing HEK293 cell membranes obtained as described in Example 3 (15-25 μg membrane protein/well) and radioligand at final assay concentrations of 0.4 to 0.6 nM. […] Finally, 25 μL of BetaScint™ scintillation cocktail was added to each well and the plates were counted in a Packard TopCount® scintillation counter. […]

5-HT2A receptor [4] = target: T3, 5-HT2A receptor; test: IP accumulation assay in HEK293 cells expressing recombinant 5-HT2 receptors; assay type: cell-based; settings: 2 h at 37° C.
Procedure: as §1

[5] = reports that led to withdrawal in 1998; cited from earlier work
[6] = a patient with Lennox-Gastaut syndrome; cited from earlier work
[7] = cited from earlier work
[8] = one study, patients without diabetes; cited from earlier work
[9] = cited from earlier work; remark: listed apart in the source
[10] = pivotal phase 3 program, up to two years
[11] = top quartile of patients, second phase 3 trial

## CCC1CN2CCNCc3ccc(C(=O)NCC(F)F)c1c32 (single isomer, unassigned) [1st eluting enantiomer in example 1.5, N-(2,2-difluoroethyl)-7-ethyl-1,2,3,4,6,7-hexahydro-[1,4]diazepino[6,7,1-hi]indole-8-carboxamide]
5-HT2C receptor [1]
  EC50: 15200 nM

## CCC1CN2CCNCc3ccc(C(=O)NCC(F)F)c1c32 (single isomer, unassigned) [2nd eluting enantiomer in example 1.5, N-(2,2-difluoroethyl)-7-ethyl-1,2,3,4,6,7-hexahydro-[1,4]diazepino[6,7,1-hi]indole-8-carboxamide]
5-HT2B receptor
  Ki: 92300 nM
5-HT2A receptor [2]
  Ki: 6580 nM
5-HT2C receptor [1]
  EC50: 7.09 nM
5-HT2C receptor [3]
  Ki: 19.7 nM

## CC1(C)CN2CCNCc3ccc(C(=O)NCC(F)F)c1c32 [Compound 6, N-(2,2-difluoroethyl)-7,7-dimethyl-1,2,3,4,6,7-hexahydro-[1,4]diazepino[6,7,1-hi]indole-8-carboxamide]
5-HT2C receptor [1]
  EC50: 195 nM

## O=C(NCC(F)F)c1ccc2c3c1C1(CCC1)CN3CCNC2 [Compound 7, N-(2,2-difluoroethyl)-2,3,4,6-tetrahydro-1H-spiro[[1,4]diazepino[6,7,1-hi]indole-7,1′-cyclobutane]-8-carboxamide]
5-HT2A receptor [4]
  EC50: 160 nM
5-HT2B receptor
  Ki: 6810 nM
5-HT2A receptor [2]
  Ki: 6750 nM
5-HT2C receptor [1]
  EC50: 17.7 nM
5-HT2C receptor [3]
  Ki: 36.6 nM

## CCN[C@@H](C)Cc1cccc(C(F)(F)F)c1 [d-fenfluramine]
[5]
  patients with reported cardiac valve defects: up to one third

## CCNC(C)Cc1cccc(C(F)(F)F)c1 (stereo not drawn) [fenfluramine]
[6]
  reduction in seizure frequency during treatment: two-thirds

## C[C@H]1CNCCc2ccc(Cl)cc21 [lorcaserin, (R)-8-chloro-1-methyl-2,3,4,5-tetrahydro-1H-3-benzazepine]
[7]; first phase 3 trial, based on a normal BMI of 25
  excess body weight lost: about one-third
[7]; [10]
  patients who achieved at least 5% weight loss: About two-thirds
  patients who achieved at least 10% weight loss: over one-third
[7]; [11]
  average weight loss: 35 pounds
  average weight loss, of body weight: 16%
[8]
  insulin resistance (HOMA-IR) change: −0.4
[9]; 10 mg BID, type 2 diabetes
  reduction in HbA1c: 0.9%
[9]; patients with type 2 diabetes
  decrease of mean daily doses of sulfonylureas and thiazolidinediones: 16-24%
